The results in this text go back to ChEMBL document CHEMBL4229332, “Novel multi-target azinesulfonamides of cyclic amine derivatives as potential antipsychotics with pro-social and pro-cognitive effects” (Eur J Med Chem, 2018).

The source made the active and inactive calls. The rule behind the calls is not given here.

Data set [1] deals with 5-hydroxytryptamine receptor 2A (Homo sapiens, UniProt P28223). Nature of the data set: biochemical. It is filed as cell-based, CHO-K1.
The nature of data set [2]: Drug level in Wistar rat plasma at 3 mg/kg, ip measured after 15 mins by LC-MS/MS analysis. Format: ADME, organism-based.
A short description of data set [3]: Drug level in Wistar rat plasma at 3 mg/kg, ip measured after 30 mins by LC-MS/MS analysis. It is filed as ADME, organism-based.
Data set [4] in a line: Drug level in Wistar rat plasma at 3 mg/kg, ip measured after 60 mins by LC-MS/MS analysis. It is filed as ADME, organism-based.
A short description of data set [5]: Drug level in Wistar rat brain at 3 mg/kg, ip measured after 15 mins by LC-MS/MS analysis. Format: ADME, organism-based. Particulars: read-out: Drug uptake.
Data set [6] in a line: Drug level in Wistar rat brain at 3 mg/kg, ip measured after 30 mins by LC-MS/MS analysis. Format: ADME, organism-based. Particulars: read-out: Drug uptake.
A short description of data set [7]: Drug level in Wistar rat brain at 3 mg/kg, ip measured after 60 mins by LC-MS/MS analysis. It is filed as ADME, organism-based. The conditions noted are these: read-out: Drug uptake.
Data set [8] can be described thus: Ratio of drug level in brain to plasma in Wistar rat at 3 mg/kg, ip measured after 15 mins by LC-MS/MS analysis. It is filed as ADME, organism-based. Particulars: read-out: BPR.
Data set [9] in a line: Ratio of drug level in brain to plasma in Wistar rat at 3 mg/kg, ip measured after 30 mins by LC-MS/MS analysis. Format: ADME, organism-based. The conditions noted are these: read-out: BPR.
The nature of data set [10]: Ratio of drug level in brain to plasma in Wistar rat at 3 mg/kg, ip measured after 60 mins by LC-MS/MS analysis. It is filed as ADME, organism-based. The conditions noted are these: read-out: BPR.
The target in data set [11] is 5-hydroxytryptamine receptor 6 (Homo sapiens, UniProt P50406). Nature of the data set: biochemical.
5-hydroxytryptamine receptor 6, sequence (P50406 whole entry): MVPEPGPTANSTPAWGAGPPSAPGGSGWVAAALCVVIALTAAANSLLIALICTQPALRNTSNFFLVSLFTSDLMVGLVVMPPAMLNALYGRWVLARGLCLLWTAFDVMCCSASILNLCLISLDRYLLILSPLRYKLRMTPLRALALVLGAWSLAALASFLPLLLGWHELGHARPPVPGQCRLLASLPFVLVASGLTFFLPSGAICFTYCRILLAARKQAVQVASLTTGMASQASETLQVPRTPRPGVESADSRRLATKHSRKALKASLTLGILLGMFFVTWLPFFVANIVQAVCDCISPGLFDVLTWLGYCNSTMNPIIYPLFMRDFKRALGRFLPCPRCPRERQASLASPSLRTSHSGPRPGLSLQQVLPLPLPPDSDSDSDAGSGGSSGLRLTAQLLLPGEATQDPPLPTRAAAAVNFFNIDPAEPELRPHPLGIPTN
Description: Displacement of [3H]-LSD from human 5-HT6R expressed in HEK293 cell membranes after 1 hr at 37 degC by microbeta counting method
The target of data set [12] is T1, 5-hydroxytryptamine receptor 1A (Homo sapiens, UniProt P08908).
T1 sequence (P08908 whole entry): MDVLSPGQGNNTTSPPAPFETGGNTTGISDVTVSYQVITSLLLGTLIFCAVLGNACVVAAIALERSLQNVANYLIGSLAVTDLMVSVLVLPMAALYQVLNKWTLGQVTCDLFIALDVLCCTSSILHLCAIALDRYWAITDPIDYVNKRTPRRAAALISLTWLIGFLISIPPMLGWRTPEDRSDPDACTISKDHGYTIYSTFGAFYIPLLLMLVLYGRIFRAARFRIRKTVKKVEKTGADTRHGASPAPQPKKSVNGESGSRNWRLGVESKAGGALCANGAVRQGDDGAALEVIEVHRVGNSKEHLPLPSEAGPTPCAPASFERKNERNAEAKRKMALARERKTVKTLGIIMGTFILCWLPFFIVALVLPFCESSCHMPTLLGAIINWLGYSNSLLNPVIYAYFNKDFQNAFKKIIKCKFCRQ
Put plainly: biochemical.
Description: Displacement of [3H]-8-OH-DPAT from human 5-HT1AR expressed in HEK293 cell membranes after 1 hr by microbeta counting method

Data set [13] concerns the target 5-hydroxytryptamine receptor 7 (Homo sapiens, UniProt P34969). Nature of the data set: biochemical.
Description: Displacement of [3H]-5-CT from human 5-HT7R expressed in HEK293 cell membranes after 1 hr at 37 degC by microbeta counting method
Data set [14] deals with 5-hydroxytryptamine receptor 1D (Rattus norvegicus) (UniProt P28565). Nature of the data set: Antagonist activity at rat 5-HT1DR expressed in CHO cells assessed as inhibition of serotonin-induced response by cellular dielectric spectroscopy. It is filed as functional, cell-based.
5-hydroxytryptamine receptor 1D (Rattus norvegicus), sequence (P28565 whole entry): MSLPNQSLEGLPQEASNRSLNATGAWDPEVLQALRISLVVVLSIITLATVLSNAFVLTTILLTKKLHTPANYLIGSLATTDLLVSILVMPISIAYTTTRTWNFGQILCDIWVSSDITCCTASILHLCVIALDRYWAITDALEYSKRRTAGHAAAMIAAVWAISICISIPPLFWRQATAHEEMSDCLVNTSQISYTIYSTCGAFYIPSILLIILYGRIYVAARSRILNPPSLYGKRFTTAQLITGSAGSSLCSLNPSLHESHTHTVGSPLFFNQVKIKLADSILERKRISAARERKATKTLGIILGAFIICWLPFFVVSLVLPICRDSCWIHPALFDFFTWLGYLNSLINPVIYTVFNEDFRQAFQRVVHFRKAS
The target of data set [15] is 5-hydroxytryptamine receptor 1B (Cricetulus griseus) (UniProt P46636). Put plainly: Antagonist activity at 5-HT1BR in CHO cells assessed as inhibition of serotonin-induced response. It is filed as functional, cell-based.
5-hydroxytryptamine receptor 1B (Cricetulus griseus), sequence (P46636 whole entry): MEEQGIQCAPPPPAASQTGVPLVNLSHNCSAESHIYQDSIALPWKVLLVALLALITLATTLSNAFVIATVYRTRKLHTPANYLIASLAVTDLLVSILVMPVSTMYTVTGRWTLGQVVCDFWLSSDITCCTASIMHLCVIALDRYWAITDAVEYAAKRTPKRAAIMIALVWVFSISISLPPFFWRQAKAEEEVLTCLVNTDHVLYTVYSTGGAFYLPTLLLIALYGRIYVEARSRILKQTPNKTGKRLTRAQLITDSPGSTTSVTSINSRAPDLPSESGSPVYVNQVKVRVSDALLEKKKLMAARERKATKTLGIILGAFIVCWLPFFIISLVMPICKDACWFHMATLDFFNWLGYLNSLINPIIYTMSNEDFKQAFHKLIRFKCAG
A short description of data set [16]: Toxicity in ip dosed Sprague-Dawley rat assessed as sedation pretreated for 60 mins followed by PCP addition measured for 30 mins starting 15 min after rat reintroduction to auto-tracks. It is filed as organism-based. The conditions noted are these: in vivo.
Data set [17] relates to Rattus norvegicus. Put plainly: Antipsychotic activity in Sprague-Dawley rat assessed as reduction in PCP-induced hyper-locomotion at 1 to 3 mg/kg, ip pretreated for 60 mins followed by PCP addition measured for 30 mins starting 15 min after rat reintroduction to auto-tracks. It is filed as functional, organism-based.

5-hydroxytryptamine receptor 2A, sequence (P28223 whole entry): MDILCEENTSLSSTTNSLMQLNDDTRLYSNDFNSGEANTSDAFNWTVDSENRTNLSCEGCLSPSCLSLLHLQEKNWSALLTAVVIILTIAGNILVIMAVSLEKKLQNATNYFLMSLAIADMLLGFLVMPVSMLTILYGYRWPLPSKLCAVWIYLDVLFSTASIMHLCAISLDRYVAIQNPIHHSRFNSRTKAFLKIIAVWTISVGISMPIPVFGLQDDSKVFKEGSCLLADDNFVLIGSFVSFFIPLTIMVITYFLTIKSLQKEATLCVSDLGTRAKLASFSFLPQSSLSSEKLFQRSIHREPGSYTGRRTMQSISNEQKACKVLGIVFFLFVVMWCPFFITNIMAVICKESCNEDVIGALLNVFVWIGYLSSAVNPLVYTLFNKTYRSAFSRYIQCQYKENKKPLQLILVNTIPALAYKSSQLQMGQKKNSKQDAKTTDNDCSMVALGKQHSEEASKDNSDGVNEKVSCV
5-hydroxytryptamine receptor 7, sequence (P34969 whole entry): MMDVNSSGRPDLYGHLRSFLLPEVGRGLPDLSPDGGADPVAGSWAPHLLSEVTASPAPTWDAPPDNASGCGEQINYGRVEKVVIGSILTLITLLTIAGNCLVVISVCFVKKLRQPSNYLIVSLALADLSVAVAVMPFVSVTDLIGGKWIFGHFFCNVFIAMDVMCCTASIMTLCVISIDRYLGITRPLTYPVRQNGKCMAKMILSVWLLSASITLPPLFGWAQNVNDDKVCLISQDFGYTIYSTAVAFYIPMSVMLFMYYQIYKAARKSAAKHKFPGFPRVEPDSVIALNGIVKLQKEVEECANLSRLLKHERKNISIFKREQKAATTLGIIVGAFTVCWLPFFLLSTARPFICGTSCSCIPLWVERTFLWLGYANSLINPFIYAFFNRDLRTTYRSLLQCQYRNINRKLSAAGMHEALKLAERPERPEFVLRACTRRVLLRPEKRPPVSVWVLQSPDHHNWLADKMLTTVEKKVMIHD

Take `O=S(=O)(c1cccc2cnccc12)N1CCC[C@@H]1CCN1CCN(c2nsc3ccccc23)CC1`: the inhibitory constant (Ki) (as a rule, a dissociation constant, usually derived from enzyme kinetics or from competition with a known ligand) in data set [1] was found to be 15 nM; in data set [11], 40 nM; in data set [12], 16 nM; in data set [13], 1 nM. Further, the values for the concentration at 0.25 h in data set [2] and in [5] were 450 nM and 114 nM, respectively. Besides, the concentration at 0.5 h in data set [3] turned out to be 389 nM; in data set [6], 81.9 nM. The figures for the concentration at 1 h in data set [4] and in [7] were 79.2 nM and 35.5 nM, respectively. In addition, the Kp at 0.25 h in [8] worked out at 0.28. Moreover, the Kp at 0.5 h in [9] was determined as 0.21. Further, in data set [10], the Kp at 1 h amounted to 0.45.

For `O=S(=O)(c1cccc2cnccc12)N1CCC[C@H]1CCN1CCN(c2nsc3ccccc23)CC1`, the Ki in data set [1] came out at 18 nM; in data set [11] it was 360 nM; in [12], 37 nM; in data set [13] it was 12 nM. Besides, the concentration at 0.25 h in [2] is 647 nM; in data set [5], 90.1 nM. Besides, the concentration at 0.5 h worked out at 417 nM in data set [3] and 67.1 nM in data set [6]. The concentration at 1 h in data set [4] came out at 117 nM; in [7] it was 19.7 nM. Besides, in [8], the Kp at 0.25 h was 0.15. The Kp at 0.5 h in [9] amounted to 0.19. In data set [10], the Kp at 1 h came to 0.17.

In the case of `CSc1ccc2c(c1)C(N1CCN(C)CC1)Cc1ccccc1S2` (stereo unspecified), the Kb (as a rule, the equilibrium dissociation constant of an antagonist, usually derived from a functional assay) in [14] is 14 nM.

As to `COc1ccc(NC(=O)c2ccc(-c3ccc(-c4noc(C)n4)cc3C)cc2)cc1N1CCN(C)CC1`, in data set [15], the antagonist dissociation constant (Kb) is 0.065 nM.

Turning to `O=S(=O)(c1cccc2ncccc12)N1CCC[C@@H]1CCN1CCN(c2cccc3c2OCCO3)CC1`, the inhibition constant Ki in data set [1] came out at 296 nM; in data set [11], 996 nM; in data set [12], 5 nM; in data set [13] it was 66 nM.

For the compound `O=S(=O)(c1cccc2cnccc12)N1CCC[C@H]1CCN1CCN(c2cccc3sccc23)CC1`, the Ki was found to be 9 nM in [1], 72 nM in data set [11], 10 nM in data set [12] and 23 nM in data set [13].

`O=c1[nH]c2c(N3CCN(CC[C@@H]4CCCN4S(=O)(=O)c4cccc5ncccc45)CC3)cccc2o1`: the inhibition constant (Ki) was determined as 2450 nM in data set [1], 3910 nM in data set [11], 23 nM in data set [12] and 1120 nM in data set [13].

With `O=S(=O)(c1cncc2ccccc12)N1CCC[C@@H]1CCN1CC=C(c2c[nH]c3ccc(Cl)cc23)CC1`, the Ki in data set [1] is 1900 nM; in data set [11], 23 nM; in data set [12], 147 nM; in [13] it was 8 nM.

Consider `O=c1[nH]c2c(N3CCN(CC[C@H]4CCCN4S(=O)(=O)c4cncc5ccccc45)CC3)cccc2o1`, for which the inhibition constant (Ki) in data set [1] was 1970 nM; in data set [11] it was 1810 nM; in data set [12], 36 nM; in data set [13], 1340 nM.

As to `O=S(=O)(c1cccc2ncccc12)N1CCC[C@H]1CCN1CCN(c2cccc3sccc23)CC1`, the Ki in data set [1] was found to be 36 nM; in data set [11], 82 nM; in [12], 13 nM; in data set [13], 19 nM.

In the case of `O=S(=O)(c1cccc2ncccc12)N1CC[C@@H]1CCN1CCN(c2nsc3ccccc23)CC1`, the inhibition constant Ki was determined as 30 nM in data set [1], 344 nM in data set [11], 54 nM in data set [12] and 57 nM in data set [13].

Turning to `O=S(=O)(c1ccnc2ccccc12)N1CCCC[C@@H]1CCN1CCN(c2nsc3ccccc23)CC1`, the Ki in data set [1] worked out at 35 nM; in data set [11], 1260 nM; in data set [12], 24 nM; in data set [13] it was 69 nM.

On to `O=S(=O)(c1cncc2ccccc12)N1CCC[C@@H]1CCN1CCN(c2cccc3c2OCCO3)CC1`, for which the Ki was determined as 390 nM in data set [1], 1260 nM in data set [11], 7 nM in data set [12] and 52 nM in [13].

Regarding `O=S(=O)(c1cccc2ncccc12)N1CCC[C@@H]1CCN1CCC(c2noc3cc(F)ccc23)CC1`, the inhibitory constant (Ki) worked out at 5 nM in data set [1], 45 nM in data set [11], 120 nM in data set [12] and 12 nM in data set [13].

Take `O=S(=O)(c1cccc2ncccc12)N1CCCCC[C@H]1CCN1CCN(c2nsc3ccccc23)CC1`: the inhibitory constant (Ki) in [1] was determined as 30 nM; in data set [11], 457 nM; in data set [12], 48 nM; in [13], 17 nM.

Regarding `O=c1[nH]c2c(N3CCN(CC[C@@H]4CCCN4S(=O)(=O)c4cncc5ccccc45)CC3)cccc2o1`, the inhibitory constant (Ki) in [1] is 2040 nM; in [11] it was 2990 nM; in data set [12] it was 27 nM; in [13] it was 672 nM.

`O=S(=O)(c1cncc2ccccc12)N1CCC[C@H]1CCN1CCN(c2cccc3c2OCCO3)CC1`: the Ki in data set [1] is 91 nM; in data set [11], 1480 nM; in data set [12], 6 nM; in data set [13], 142 nM.

With `O=S(=O)(c1cncc2ccccc12)N1CCC[C@@H]1CCN1CCN(c2nsc3ccccc23)CC1`, the Ki was found to be 10 nM in data set [1], 40 nM in data set [11], 14 nM in data set [12] and 3 nM in data set [13]. Further, the concentration at 0.25 h in [2] amounted to 472 nM; in data set [5], 218 nM. The concentration at 0.5 h turned out to be 376 nM in [3] and 242 nM in data set [6]. The values for the concentration at 1 h in [4] and in [7] were 125 nM and 123 nM, respectively. For the same compound, in [8], the Kp at 0.25 h came out at 0.48. In addition, the Kp at 0.5 h in data set [9] stood at 0.65. Besides, in data set [10], the Kp at 1 h is 1. The MTD at 0.5 h in [16] came out at 2 mg/kg. In addition, the result in [17] was inactive.

For `O=S(=O)(c1cncc2ccccc12)N1CCC[C@H]1CCN1CC=C(c2c[nH]c3ccc(Cl)cc23)CC1`, the Ki in [1] was 238 nM; in data set [11] it was 60 nM; in data set [12], 66 nM; in [13] it was 97 nM.

In the case of `O=S(=O)(c1cccc2ncccc12)N1CCC[C@H]1CCN1CCN(c2noc3ccccc23)CC1`, the Ki amounted to 49 nM in data set [1], 291 nM in data set [11], 179 nM in data set [12] and 7 nM in data set [13].

With `O=S(=O)(c1cncc2ccccc12)N1CCC[C@H]1CCN1CCC(c2noc3cc(F)ccc23)CC1`, the Ki in [1] was 6 nM; in [11], 137 nM; in data set [12], 111 nM; in data set [13], 0.4 nM.

As to `O=S(=O)(c1cncc2ccccc12)N1CC[C@@H]1CCN1CCN(c2nsc3ccccc23)CC1`, the inhibition constant Ki in [1] was 24 nM; in [11], 348 nM; in data set [12] it was 56 nM; in data set [13] it was 51 nM.

For the compound `O=S(=O)(c1cccc2cnccc12)N1CCC[C@H]1CCN1CCN(c2noc3ccccc23)CC1`, the inhibition constant Ki came out at 41 nM in data set [1], 92 nM in data set [11], 86 nM in data set [12] and 10 nM in data set [13].

`O=S(=O)(c1cccc2ncccc12)N1CCC[C@@H]1CCN1CCN(c2cccc3[nH]ccc23)CC1`: the Ki in [1] came out at 451 nM; in data set [11], 641 nM; in [12] it was 5 nM; in data set [13], 14 nM.

Turning to `O=S(=O)(c1cncc2ccccc12)N1CCC[C@H]1CCN1CCN(c2cccc3[nH]ccc23)CC1`, the Ki in [1] stood at 82 nM; in data set [11], 2060 nM; in data set [12], 8 nM; in [13], 75 nM.

For `O=S(=O)(c1cccc2cnccc12)N1CCC[C@@H]1CCN1CCN(c2cccc3sccc23)CC1`, the inhibition constant Ki in data set [1] was determined as 19 nM; in [11], 9 nM; in data set [12], 13 nM; in [13] it was 3 nM.

As for `O=S(=O)(c1cccc2ncccc12)N1CCC[C@H]1CCN1CCN(c2cccc3[nH]ccc23)CC1`, the Ki in data set [1] amounted to 244 nM; in data set [11], 2310 nM; in data set [12], 14 nM; in data set [13], 165 nM.
